ChEMBL document CHEMBL1126886, “Synthesis of 5-methyl-5-deaza nonclassical antifolates as inhibitors of dihydrofolate reductases and as potential antipneumocystis, antitoxoplasma, and antitumor agents” (J Med Chem, 1993)

Tests used:
Dihydrofolate reductase [1] = target: T1, Dihydrofolate reductase (Pneumocystis carinii, UniProt P16184)
T1 sequence (P16184 whole entry): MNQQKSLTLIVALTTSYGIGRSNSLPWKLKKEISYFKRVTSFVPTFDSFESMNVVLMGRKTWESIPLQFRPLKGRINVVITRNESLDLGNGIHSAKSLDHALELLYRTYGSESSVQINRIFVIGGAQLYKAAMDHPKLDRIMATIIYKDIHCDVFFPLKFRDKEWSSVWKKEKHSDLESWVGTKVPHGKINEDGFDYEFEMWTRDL
Description: Inhibition of Pneumocystis carinii dihydrofolate reductase

Dihydrofolate reductase [2] = target: T2, Dihydrofolate reductase (Rattus norvegicus, UniProt Q920D2)
T2 sequence (Q920D2 whole entry): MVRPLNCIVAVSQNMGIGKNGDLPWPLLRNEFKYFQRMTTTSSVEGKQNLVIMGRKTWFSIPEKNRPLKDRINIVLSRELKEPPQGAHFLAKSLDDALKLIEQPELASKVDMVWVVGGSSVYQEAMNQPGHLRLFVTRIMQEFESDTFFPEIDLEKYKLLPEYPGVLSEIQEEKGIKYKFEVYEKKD
Description: Inhibition of rat liver dihydrofolate reductase

ACHN = assay: Inhibitory concentration required to decrease cell viability in cell growth culture against kidney cells ACHN; assay type: functional, cell-based; settings: Homo sapiens
CCRF-CEM = assay: Inhibitory concentration required to decrease cell viability in cell growth culture against leukemia cells CCRF-CEM; assay type: functional, cell-based; settings: Homo sapiens
[3] = target: T3, Bifunctional dihydrofolate reductase-thymidylate synthase (Toxoplasma gondii, UniProt Q07422); assay: Inhibition of Toxoplasma gondii dihydrofolate reductase
T3 sequence (Q07422 whole entry): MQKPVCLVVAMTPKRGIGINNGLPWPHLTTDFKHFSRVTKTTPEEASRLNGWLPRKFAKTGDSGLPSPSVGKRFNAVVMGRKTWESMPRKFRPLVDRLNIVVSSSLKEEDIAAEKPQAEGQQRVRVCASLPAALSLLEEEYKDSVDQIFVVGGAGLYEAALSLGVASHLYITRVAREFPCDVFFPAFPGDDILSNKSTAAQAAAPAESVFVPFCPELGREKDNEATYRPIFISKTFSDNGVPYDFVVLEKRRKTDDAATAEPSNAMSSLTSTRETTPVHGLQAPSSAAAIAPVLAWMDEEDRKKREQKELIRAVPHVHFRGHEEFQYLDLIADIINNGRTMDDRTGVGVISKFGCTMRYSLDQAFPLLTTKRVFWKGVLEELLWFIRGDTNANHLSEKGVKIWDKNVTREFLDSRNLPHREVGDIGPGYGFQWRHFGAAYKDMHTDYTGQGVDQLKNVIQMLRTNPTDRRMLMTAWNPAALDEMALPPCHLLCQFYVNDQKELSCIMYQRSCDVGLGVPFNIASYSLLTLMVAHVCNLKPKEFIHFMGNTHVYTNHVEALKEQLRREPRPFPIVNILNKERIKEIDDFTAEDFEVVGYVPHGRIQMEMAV

HCT-116 = assay: Inhibitory concentration required to decrease cell viability in cell growth culture against colon carcinoma cells HCT116; assay type: functional, cell-based; settings: Homo sapiens
MCF7S = assay: Inhibitory concentration required to decrease cell viability in cell growth culture against breast carcinoma cells MCF-7; assay type: functional, cell-based; settings: Homo sapiens
[4] = Inhibitory concentration required to decrease cell viability in cell growth culture against melanoma SK5 MeI; assay type: functional; settings: Homo sapiens
Toxoplasma gondii [5] = assay: Inhibitory concentration of Toxoplasma gondii cells in human embryonic lung cells with minimum essential medium; inactive; assay type: functional, organism-based
Dihydrofolate reductase [6] = target: T2, Dihydrofolate reductase; assay: Inhibitory concentration against rat liver dihydrofolate reductases
Pneumocystis carinii [7] = assay: Inhibitory concentration against Pneumocystis carinii cells in human embryonic lung fibrobalstic cell culture with MEM at 1 ug/mL; assay type: functional, organism-based
Dihydrofolate reductase [8] = target: T4, Dihydrofolate reductase (Lactobacillus casei, UniProt P00381); assay: Inhibitory concentration against Lactobacillus casei dihydrofolate reductase; design: species or system Lacticaseibacillus casei
Pneumocystis carinii [9] = assay: (§1) Inhibitory concentration against Pneumocystis carinii cells in human embryonic lung fibrobalstic cell culture with MEM at 10 ug/mL; assay type: functional, organism-based
Toxoplasma gondii [10] = assay: Inhibitory concentration of Toxoplasma gondii cells in human embryonic lung cells with minimum essential medium; assay type: functional, organism-based
Pneumocystis carinii [11] = assay: as §1
Dihydrofolate reductase [12] = target: T4, Dihydrofolate reductase; assay: (§2) Inhibitory concentration against Lactobacillus casei; design: species or system Lacticaseibacillus casei
Pneumocystis carinii [13] = assay: microbe, parasite or virus in culture
Description: Inhibitory concentration against Pneumocystis carinii cells in human embryonic lung fibrobalstic cell culture with MEM at 250 ug/mL

Pneumocystis carinii [14] = assay: Inhibitory concentration against Pneumocystis carinii cells in human embryonic lung fibrobalstic cell culture with MEM at 50 ug/mL
Lacticaseibacillus casei = assay: as §2; assay type: functional, organism-based

T4 sequence (P00381 whole entry): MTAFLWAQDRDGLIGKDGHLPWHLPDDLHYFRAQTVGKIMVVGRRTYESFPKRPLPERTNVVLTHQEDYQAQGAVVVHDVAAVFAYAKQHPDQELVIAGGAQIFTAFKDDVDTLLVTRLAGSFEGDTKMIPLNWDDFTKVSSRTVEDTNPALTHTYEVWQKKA

| SMILES | IC50 (Dihydrofolate reductase [1]) [nM] | IC50 (Dihydrofolate reductase [2]) [nM] | IC50 (ACHN) [nM] | IC50 (CCRF-CEM) [nM] | IC50 [3] [nM] | IC50 (HCT-116) [nM] | IC50 (MCF7S) [nM] | IC50 [4] [nM] | other results |
| --- | --- | --- | --- | --- | --- | --- | --- | --- | --- |
| COc1cc(N(C=O)CC2=CNc3nc(N)nc(N)c3C2C)cc(OC)c1OC (stereo unspecified) | > 2600 | > 2600 |  |  |  |  |  |  |  |
| COc1cc(N(C=O)Cc2cnc3nc(N)nc(N)c3c2C)cc(OC)c1OC | 550 | 110 | > 112000 | 610 | 13 | > 112000 | > 100000 | > 112000 | IC50 (Toxoplasma gondii [5]): Not Active |
| Cc1c(CN(C=O)c2ccc(Cl)c(Cl)c2)cnc2nc(N)nc(N)c12 | 510 |  | 91400 | 210 | 83 | 16000 | 106000 | 25100 | IC50 (Dihydrofolate reductase [6]): 140 nM |
| COc1cc(N(C=O)CC2CNc3nc(N)nc(N)c3C2C)cc(OC)c1OC (stereo unspecified) | > 1200 | > 1200 |  |  |  |  |  |  |  |
| COc1cc(NCc2cnc3nc(N)nc(N)c3c2C)cc(OC)c1OC.O=C(O)[C@H]1O[C@H](O)[C@H](O)[C@@H](O)[C@@H]1O |  |  |  |  |  |  |  |  | % inhibition (Pneumocystis carinii [7]): 2% |
| COc1cc(NCc2cnc3nc(N)nc(N)c3c2C)cc(OC)c1OC |  | 2.1 | > 100000 | 130 |  | 71700 | > 100000 | > 100000 | IC50 (Dihydrofolate reductase [8]): 22 nM; % inhibition (Pneumocystis carinii [7]): 56%; % inhibition (Pneumocystis carinii [9]): 77%; IC50 (Toxoplasma gondii [10]): 23000 nM |
| COc1cc(NCc2cnc3nc(N)nc(N)c3c2C)cc(OC)c1OC.O=C(O)[C@H]1OC(O)[C@H](O)[C@@H](O)[C@@H]1O |  |  |  |  |  |  |  |  | % inhibition (Pneumocystis carinii [11]): 57% |
| Cc1c(CN(C=O)c2cc(Cl)c(Cl)c(Cl)c2)cnc2nc(N)nc(N)c12 | 520 | 250 |  | 30 | 94 |  |  |  |  |
| Cc1c(CNc2cc(Cl)c(Cl)c(Cl)c2)cnc2nc(N)nc(N)c12 | 63 | 33 |  | 200 | 12 |  | > 100000 |  |  |
| COc1cc(NCC2CNc3nc(N)nc(N)c3C2C)cc(OC)c1OC (stereo unspecified) | > 3700 | 3700 |  |  |  |  |  |  |  |
| COc1cc(N(C)Cc2cnc3nc(N)nc(N)c3c2C)cc(OC)c1OC |  | 7.6 | > 100000 | 20 |  | 37900 | > 100000 | > 100000 | IC50 (Dihydrofolate reductase [8]): 200 nM; % inhibition (Pneumocystis carinii [7]): 65%; % inhibition (Pneumocystis carinii [9]): 74%; IC50 (Toxoplasma gondii [10]): 4700 nM |
| Cc1c(CNc2ccc(Cl)c(Cl)c2)cnc2nc(N)nc(N)c12 | 320 | 53 | 22900 | 100 | 28 | 28600 | 94500 | 7730 | IC50 (Dihydrofolate reductase [12]): 860 nM |
| Cc1c(CN(C)c2cc(Cl)c(Cl)c(Cl)c2)cnc2nc(N)nc(N)c12 | 105 | 36.3 |  | 200 | 38.1 |  | 18200 |  | IC50 (Dihydrofolate reductase [12]): 36 nM |
| Cc1c(CN(C)c2ccc(Cl)c(Cl)c2)cnc2nc(N)nc(N)c12 | 100 | 42 | 70200 | 10 | 27 | 5300 | 9600 | 21200 | IC50 (Dihydrofolate reductase [12]): 960 nM |
| COc1cc(Cc2cnc(N)nc2N)cc(OC)c1OC.Cc1cc(NS(=O)(=O)c2ccc(N)cc2)no1 [CO-TRIMOXAZOLE] |  |  |  |  |  |  |  |  | inhibition at 250 µg/mL (Pneumocystis carinii [13]): 84% |
| COc1cc(Cc2cnc(N)nc2N)cc(OC)c1OC [TRIMETHOPRIM] |  |  |  |  |  |  |  |  | inhibition at 50 µg/mL (Pneumocystis carinii [14]): 84% |
| COc1cc(NCc2ccc3nc(N)nc(N)c3c2C)cc(OC)c1OC [TRIMETREXATE] |  |  |  |  |  |  |  |  | IC50 (Lacticaseibacillus casei): 27 nM |
